Measured values taken from ChEMBL document CHEMBL1201862, “PubChem BioAssay data set” (2004).
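Grown in 96-well plates, cells were treated for 48 hours with each compound at five concentrations. Insufficient inhibition: endpoint recorded as highest concentration tested. GI50 = concentration required for 50% inhibition of growth.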 The source made the active and inactive calls. No stated cut-off is given here; in the data, active = GI50 up to about 1.1 µM and inactive = higher.

Key:
Test in all cases: inhibition of tumour cell growth, NCI panel, 48 h
[1] = system: U-251
[2] = system: M14
[3] = system: SR
[4] = system: SF-268
[5] = system: SW-620
[6] = system: ACHN
[7] = system: A549
[8] = system: NCI-H522
[9] = system: UO-31
[10] = system: CCRF-CEM
[11] = system: SNB-19
[12] = system: HCT-15
[13] = system: SNB-75
[14] = system: HT-29
[15] = system: OVCAR-8
[16] = system: A498

SMILES	GI50 [1]	GI50 [2]	GI50 [3]	GI50 [4]	GI50 [5]	GI50 [6]	GI50 [7]	GI50 [8]	GI50 [9]	GI50 [10]	GI50 [11]	GI50 [12]	GI50 [13]	GI50 [14]	GI50 [15]	GI50 [16]
O=C1c2ccccc2C(=O)C1C(c1ccc(F)cc1)C1C(=O)c2ccccc2C1=O	> 100 µM (inactive)	> 100 µM (inactive)	41.5 µM (inactive)	> 100 µM (inactive)	> 100 µM (inactive)	> 100 µM (inactive)	> 100 µM (inactive)	> 100 µM (inactive)	> 100 µM (inactive)	43 µM (inactive)	> 100 µM (inactive)	> 100 µM	55 µM (inactive)	> 100 µM (inactive)	> 100 µM (inactive)	–
CCCCCCCCCCCc1cc(=O)c2c(O)cccc2o1	95.7 µM (inactive)	64 µM (inactive)	26.1 µM (inactive)	> 100 µM (inactive)	> 100 µM (inactive)	> 100 µM (inactive)	61.8 µM (inactive)	71.1 µM (inactive)	> 100 µM (inactive)	20.3 µM (inactive)	> 100 µM (inactive)	54.8 µM	> 100 µM (inactive)	53.7 µM (inactive)	> 100 µM (inactive)	–
COc1ccc(C=C(c2ccc(OCc3ccccc3)cc2)c2ccc(OCc3ccccc3)cc2)cc1	> 100 µM (inactive)	> 100 µM (inactive)	> 100 µM (inactive)	> 100 µM (inactive)	> 100 µM (inactive)	> 100 µM (inactive)	> 100 µM (inactive)	> 100 µM (inactive)	> 100 µM (inactive)	–	> 100 µM (inactive)	> 100 µM	> 100 µM (inactive)	> 100 µM (inactive)	> 100 µM (inactive)	–
CCOP(=O)(OCC)C(C(=O)OC)C(=O)C(=O)Nc1ccc(Cl)cc1Cl (stereo not given)	> 100 µM (inactive)	> 100 µM (inactive)	–	> 100 µM (inactive)	> 100 µM (inactive)	> 100 µM (inactive)	> 100 µM (inactive)	> 100 µM (inactive)	> 100 µM (inactive)	> 100 µM (inactive)	> 100 µM (inactive)	> 100 µM	> 100 µM (inactive)	> 100 µM (inactive)	> 100 µM (inactive)	> 100 µM (inactive)
COC(=O)C1=C(C(=O)OC)C2(CCCCCC2=O)OC1=O (stereo not given)	> 100 µM (inactive)	> 100 µM (inactive)	–	> 100 µM (inactive)	> 100 µM (inactive)	> 100 µM (inactive)	> 100 µM (inactive)	> 100 µM (inactive)	–	> 100 µM (inactive)	> 100 µM (inactive)	> 100 µM	> 100 µM (inactive)	> 100 µM (inactive)	> 100 µM (inactive)	> 100 µM (inactive)
CC1=Nn2c(nnc2-c2ccc(N)cc2)NC(C)(C)C1	> 100 µM (inactive)	> 100 µM (inactive)	–	> 100 µM (inactive)	> 100 µM (inactive)	> 100 µM (inactive)	> 100 µM (inactive)	> 100 µM (inactive)	> 100 µM (inactive)	> 100 µM (inactive)	> 100 µM (inactive)	> 100 µM	–	> 100 µM (inactive)	–	> 100 µM (inactive)
NC(CCCNCc1ccccc1)C(=O)O (stereo not given)	–	> 100 µM (inactive)	–	> 100 µM (inactive)	> 100 µM (inactive)	> 100 µM (inactive)	> 100 µM (inactive)	> 100 µM (inactive)	> 100 µM (inactive)	> 100 µM (inactive)	> 100 µM (inactive)	> 100 µM	> 100 µM (inactive)	> 100 µM (inactive)	> 100 µM (inactive)	> 100 µM (inactive)
